Values belong to the compound of their own block, whether it stands above or below them. Calls of active or inactive are those of the source.
Assays:
[1] = target: T1, Short transient receptor potential channel 4 (Mus musculus, UniProt Q9QUQ5); test: potentiation of DAMGO-evoked TRPC4 calcium signal – cell-based, HEK293 TRPC4/mu-opioid, Fluo-4 calcium, EC20 DAMGO, dose response (AID 434941); format: functional
T1 sequence (Q9QUQ5 whole entry): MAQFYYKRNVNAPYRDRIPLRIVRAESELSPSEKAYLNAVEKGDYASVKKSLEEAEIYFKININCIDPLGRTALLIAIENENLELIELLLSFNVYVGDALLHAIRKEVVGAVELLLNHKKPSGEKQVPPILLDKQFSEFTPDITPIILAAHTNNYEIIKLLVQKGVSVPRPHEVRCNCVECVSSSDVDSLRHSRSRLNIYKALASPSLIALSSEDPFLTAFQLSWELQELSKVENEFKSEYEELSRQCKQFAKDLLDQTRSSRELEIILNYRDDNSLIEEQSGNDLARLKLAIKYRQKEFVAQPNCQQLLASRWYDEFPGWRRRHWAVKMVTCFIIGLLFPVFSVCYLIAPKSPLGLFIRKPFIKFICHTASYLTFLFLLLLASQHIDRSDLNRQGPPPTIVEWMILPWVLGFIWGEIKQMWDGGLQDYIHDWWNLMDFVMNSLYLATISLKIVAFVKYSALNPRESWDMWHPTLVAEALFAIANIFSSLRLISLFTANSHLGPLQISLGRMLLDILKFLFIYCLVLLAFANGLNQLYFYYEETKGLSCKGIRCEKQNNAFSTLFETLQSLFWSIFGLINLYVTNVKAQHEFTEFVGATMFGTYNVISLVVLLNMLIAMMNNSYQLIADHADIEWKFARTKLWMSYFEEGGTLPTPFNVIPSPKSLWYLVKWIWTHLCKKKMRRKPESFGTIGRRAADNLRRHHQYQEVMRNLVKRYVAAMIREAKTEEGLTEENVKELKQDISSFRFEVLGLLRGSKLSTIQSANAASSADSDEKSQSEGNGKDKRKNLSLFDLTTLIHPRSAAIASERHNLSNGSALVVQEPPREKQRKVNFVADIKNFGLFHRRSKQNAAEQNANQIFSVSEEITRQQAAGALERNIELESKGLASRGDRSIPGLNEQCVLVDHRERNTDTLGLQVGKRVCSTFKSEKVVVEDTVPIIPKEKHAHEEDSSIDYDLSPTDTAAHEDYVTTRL

[2] = system: Vero; test: host cell viability loss, Vero E6 – synthesized analogs, cytotoxicity control for West Nile virus antiviral project, SAR follow-up (AID 2244); format: functional; details: Chlorocebus sabaeus
[3] = system: Vero; test: antiviral protection of cells from WNV – synthesized analogs, SAR follow-up (AID 2238); format: functional, cell-based; details: Chlorocebus sabaeus
[4] = viability loss in THP-1 monocytes – THP-1 cells, cytotoxicity control for Vif-APOBEC3G degradation inhibitor project, dose response (AID 1117359); format: functional; details: THP-1
[5] = target: T2, Bcl-2-like protein 10 (Homo sapiens, UniProt Q9HD36); test: Bcl-B/TR3 peptide binding disruption – biochemical, fluorescence polarization, FITC-TR3 peptide, selectivity assay for Bfl-1 inhibitor project, primary screen (AID 748);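 further: fluorescence polarization from a fluorescein-labelled TR3 peptide binding purified Bcl-B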
T2 sequence (Q9HD36 whole entry): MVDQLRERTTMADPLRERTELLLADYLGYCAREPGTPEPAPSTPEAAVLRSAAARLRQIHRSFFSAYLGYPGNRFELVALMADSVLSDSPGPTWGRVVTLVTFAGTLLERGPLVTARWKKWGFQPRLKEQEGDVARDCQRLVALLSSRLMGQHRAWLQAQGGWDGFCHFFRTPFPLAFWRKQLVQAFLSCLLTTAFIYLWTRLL

[6] = target: Tyrosine-protein phosphatase non-receptor type 7 (Homo sapiens, UniProt P35236); test: redox-active compounds inhibiting HePTP phosphatase – biochemical, fluorescence, mechanism study (AID 2068); format: functional
[7] = viability loss in Vero cells – cytotoxicity control for Vif-APOBEC3G degradation inhibitor project, dose response (AID 1117358); format: functional; details: Vero
[8] = target: T3, SUMO-activating enzyme (Homo sapiens, UniProt Q9UBT2); test: blockers of SAE1/SAE2–UBC9 SUMO transfer – biochemical, HTRF, uHTS, primary screen (AID 2006); format: protein-complex assay
[9] = target: T3, SUMO-activating enzyme; test: blockers of UBC9-mediated SUMO conjugation – biochemical, AlphaScreen, SUMOylation inhibitor project, confirmation (AID 2018); format: functional
[10] = target: T4, Corticotropin-releasing factor receptor 2/Corticotropin-releasing factor-binding protein (Homo sapiens, UniProt P24387+Q13324); test: activators of CRF receptor 2 with binding protein – uHTS hits, confirmation (AID 602473); format: functional; details: read-out: EC50_Mean
T4 sequence (Q13324 whole entry): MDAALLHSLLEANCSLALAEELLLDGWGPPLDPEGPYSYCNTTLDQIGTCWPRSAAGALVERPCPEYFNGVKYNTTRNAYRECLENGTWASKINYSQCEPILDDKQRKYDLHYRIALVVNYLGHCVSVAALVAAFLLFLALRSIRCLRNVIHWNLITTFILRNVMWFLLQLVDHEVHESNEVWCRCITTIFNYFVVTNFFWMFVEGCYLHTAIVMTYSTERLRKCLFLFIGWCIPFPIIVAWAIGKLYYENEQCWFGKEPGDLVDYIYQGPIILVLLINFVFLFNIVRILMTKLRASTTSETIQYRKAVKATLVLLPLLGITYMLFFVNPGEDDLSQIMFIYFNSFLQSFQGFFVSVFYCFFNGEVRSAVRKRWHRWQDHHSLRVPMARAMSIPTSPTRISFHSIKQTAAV
T4 sequence (P24387 whole entry): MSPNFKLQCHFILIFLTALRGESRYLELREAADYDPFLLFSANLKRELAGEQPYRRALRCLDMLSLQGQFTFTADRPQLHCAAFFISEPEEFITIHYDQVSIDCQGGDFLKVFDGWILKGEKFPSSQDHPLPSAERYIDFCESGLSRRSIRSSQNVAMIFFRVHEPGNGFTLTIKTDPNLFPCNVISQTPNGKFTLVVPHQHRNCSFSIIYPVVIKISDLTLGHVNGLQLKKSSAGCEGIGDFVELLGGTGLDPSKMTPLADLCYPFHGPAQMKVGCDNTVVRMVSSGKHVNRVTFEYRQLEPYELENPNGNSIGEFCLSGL

[11] = target: Cytochrome P450 3A4 (Homo sapiens, UniProt P08684);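 further: CYP3A4 tested as one member of a cytochrome P450 panel screen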
[12] = target: Caspase-7 (Homo sapiens, UniProt P55210); test: activation of caspase-7 zymogen – biochemical, absorbance, counter-screen for procaspase-3 activator project, dose response (AID 489013)
[13] = target: T5, Caspase-3 (Homo sapiens, UniProt P42574); test: activation of caspase-3 zymogen – biochemical, absorbance, dose response (AID 489014)
T5 sequence (P42574 whole entry): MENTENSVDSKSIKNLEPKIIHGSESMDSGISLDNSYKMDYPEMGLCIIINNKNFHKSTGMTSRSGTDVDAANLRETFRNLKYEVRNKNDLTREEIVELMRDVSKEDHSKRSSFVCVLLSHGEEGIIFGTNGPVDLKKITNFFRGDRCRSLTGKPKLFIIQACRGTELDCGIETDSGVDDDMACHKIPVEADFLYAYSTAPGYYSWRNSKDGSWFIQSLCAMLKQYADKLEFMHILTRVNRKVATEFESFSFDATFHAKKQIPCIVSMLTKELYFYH

[14] = target: T4, Corticotropin-releasing factor receptor 2/Corticotropin-releasing factor-binding protein; test: Dose Response confirmation of uHTS hits for small molecule antagonists of the CRF-binding protein and CRF-R2 receptor complex.; format: functional; details: read-out: IC50_Mean
[15] = target: CAAX prenyl protease 2 (Saccharomyces cerevisiae S288c, UniProt Q03530); format: biochemical
[16] = target: Trypsin (Sus scrofa, UniProt P00761); test: trypsin protease activity blockade – biochemical, quenched peptide fluorescence, cherry-pick, selectivity assay for Rce1 protease inhibitor project, dose response (AID 488789)
[17] = target: CAAX prenyl protease 2 (Homo sapiens, UniProt Q9Y256); test: inhibition of Ras-converting CAAX protease Rce1 – biochemical, yeast membranes, quenched-peptide fluorescence, cherry-pick, dose response (AID 588849)
[18] = target: Voltage-dependent T-type calcium channel subunit alpha-1H (Homo sapiens, UniProt O95180); test: human CACNA1H calcium influx blockade – cell-based, synthetic library set 1, calcium flux (AID 493022); format: functional
Sequence of Voltage-dependent T-type calcium channel subunit alpha-1H (O95180 whole entry): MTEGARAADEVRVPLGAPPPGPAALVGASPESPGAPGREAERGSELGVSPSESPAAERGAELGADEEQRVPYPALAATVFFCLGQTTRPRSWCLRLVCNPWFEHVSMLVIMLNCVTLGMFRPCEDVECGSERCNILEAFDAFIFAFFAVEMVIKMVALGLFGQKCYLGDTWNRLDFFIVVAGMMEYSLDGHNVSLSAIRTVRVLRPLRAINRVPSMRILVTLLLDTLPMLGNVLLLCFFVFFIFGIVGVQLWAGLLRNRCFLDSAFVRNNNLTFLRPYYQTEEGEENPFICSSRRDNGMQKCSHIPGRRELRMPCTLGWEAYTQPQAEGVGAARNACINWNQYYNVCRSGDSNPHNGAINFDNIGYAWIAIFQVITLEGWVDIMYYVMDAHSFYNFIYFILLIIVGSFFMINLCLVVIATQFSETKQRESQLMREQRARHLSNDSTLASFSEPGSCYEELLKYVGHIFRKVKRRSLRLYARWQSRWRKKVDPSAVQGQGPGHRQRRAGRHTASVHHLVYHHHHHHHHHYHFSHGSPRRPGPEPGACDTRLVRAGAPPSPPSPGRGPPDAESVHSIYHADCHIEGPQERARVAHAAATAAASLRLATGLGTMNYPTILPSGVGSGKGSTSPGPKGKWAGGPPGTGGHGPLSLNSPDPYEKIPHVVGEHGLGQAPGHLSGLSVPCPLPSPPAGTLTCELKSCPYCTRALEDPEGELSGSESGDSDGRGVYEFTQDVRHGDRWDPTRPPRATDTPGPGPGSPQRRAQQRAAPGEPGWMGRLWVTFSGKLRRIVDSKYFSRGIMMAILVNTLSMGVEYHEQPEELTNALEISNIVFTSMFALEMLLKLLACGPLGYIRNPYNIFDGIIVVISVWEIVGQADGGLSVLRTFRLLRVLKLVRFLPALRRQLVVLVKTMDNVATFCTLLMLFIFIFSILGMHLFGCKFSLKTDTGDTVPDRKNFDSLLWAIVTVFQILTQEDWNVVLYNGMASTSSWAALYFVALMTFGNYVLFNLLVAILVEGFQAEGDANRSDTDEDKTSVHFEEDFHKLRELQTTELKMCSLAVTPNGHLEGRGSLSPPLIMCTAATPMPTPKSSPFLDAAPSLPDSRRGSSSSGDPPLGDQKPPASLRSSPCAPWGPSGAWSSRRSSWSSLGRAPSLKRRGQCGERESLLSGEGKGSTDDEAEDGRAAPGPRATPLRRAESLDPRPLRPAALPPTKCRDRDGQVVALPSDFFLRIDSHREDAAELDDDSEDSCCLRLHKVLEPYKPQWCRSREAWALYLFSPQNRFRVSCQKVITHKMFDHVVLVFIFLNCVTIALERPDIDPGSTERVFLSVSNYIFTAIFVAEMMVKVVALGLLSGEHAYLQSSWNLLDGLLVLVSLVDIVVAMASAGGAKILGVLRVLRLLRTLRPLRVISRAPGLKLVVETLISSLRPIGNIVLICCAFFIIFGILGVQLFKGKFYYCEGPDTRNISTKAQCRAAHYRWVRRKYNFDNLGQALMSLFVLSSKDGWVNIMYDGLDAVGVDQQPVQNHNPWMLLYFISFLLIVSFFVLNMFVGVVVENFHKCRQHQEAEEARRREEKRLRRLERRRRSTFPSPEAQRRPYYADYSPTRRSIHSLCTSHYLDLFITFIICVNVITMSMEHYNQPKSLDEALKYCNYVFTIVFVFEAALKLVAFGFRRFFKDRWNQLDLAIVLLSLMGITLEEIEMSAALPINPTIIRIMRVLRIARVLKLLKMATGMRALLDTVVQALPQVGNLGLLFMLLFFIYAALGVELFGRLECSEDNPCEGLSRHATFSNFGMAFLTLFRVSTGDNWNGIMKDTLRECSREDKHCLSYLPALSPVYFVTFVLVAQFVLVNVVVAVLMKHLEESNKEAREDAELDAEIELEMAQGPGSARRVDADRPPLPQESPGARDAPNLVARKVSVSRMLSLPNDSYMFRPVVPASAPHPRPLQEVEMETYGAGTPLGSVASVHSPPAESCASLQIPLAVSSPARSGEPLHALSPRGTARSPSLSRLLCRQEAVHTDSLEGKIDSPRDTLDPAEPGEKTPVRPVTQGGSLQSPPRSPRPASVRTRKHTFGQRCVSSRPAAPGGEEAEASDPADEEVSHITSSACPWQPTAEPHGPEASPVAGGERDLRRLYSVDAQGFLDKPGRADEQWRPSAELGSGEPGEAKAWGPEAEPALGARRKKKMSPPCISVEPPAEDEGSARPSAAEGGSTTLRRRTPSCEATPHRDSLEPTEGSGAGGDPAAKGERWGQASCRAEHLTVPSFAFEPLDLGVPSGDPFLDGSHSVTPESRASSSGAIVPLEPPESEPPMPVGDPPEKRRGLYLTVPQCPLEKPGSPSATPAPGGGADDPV

T3 sequence (Q9UBE0 whole entry): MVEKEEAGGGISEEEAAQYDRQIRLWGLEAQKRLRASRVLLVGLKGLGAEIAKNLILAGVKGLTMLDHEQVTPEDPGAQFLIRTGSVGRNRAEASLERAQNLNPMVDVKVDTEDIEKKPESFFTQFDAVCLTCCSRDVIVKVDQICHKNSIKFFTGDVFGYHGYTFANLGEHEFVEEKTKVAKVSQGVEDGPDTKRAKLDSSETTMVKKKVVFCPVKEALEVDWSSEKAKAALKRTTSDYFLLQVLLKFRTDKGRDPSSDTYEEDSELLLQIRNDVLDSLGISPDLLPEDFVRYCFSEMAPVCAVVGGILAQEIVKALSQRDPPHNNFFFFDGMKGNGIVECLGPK
T3 sequence (Q9UBT2 whole entry): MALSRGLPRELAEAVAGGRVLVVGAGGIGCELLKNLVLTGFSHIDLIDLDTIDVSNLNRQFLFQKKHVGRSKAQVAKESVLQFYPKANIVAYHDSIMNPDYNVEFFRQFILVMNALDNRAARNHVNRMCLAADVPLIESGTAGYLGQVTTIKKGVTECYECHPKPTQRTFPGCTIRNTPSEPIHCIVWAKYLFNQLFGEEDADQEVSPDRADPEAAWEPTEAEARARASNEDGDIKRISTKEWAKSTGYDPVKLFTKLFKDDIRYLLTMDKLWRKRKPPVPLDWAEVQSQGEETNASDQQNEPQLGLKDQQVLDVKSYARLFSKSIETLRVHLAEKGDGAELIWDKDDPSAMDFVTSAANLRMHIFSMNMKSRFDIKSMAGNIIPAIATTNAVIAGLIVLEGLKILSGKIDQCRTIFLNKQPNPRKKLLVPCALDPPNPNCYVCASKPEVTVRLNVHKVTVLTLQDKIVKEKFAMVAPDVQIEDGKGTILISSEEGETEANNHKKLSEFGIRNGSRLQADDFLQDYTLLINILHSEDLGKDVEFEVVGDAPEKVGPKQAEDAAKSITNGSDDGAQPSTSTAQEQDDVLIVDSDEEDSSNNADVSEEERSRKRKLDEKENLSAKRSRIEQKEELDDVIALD
Sequence of CAAX prenyl protease 2 (Homo sapiens, UniProt Q9Y256) (Q9Y256 whole entry): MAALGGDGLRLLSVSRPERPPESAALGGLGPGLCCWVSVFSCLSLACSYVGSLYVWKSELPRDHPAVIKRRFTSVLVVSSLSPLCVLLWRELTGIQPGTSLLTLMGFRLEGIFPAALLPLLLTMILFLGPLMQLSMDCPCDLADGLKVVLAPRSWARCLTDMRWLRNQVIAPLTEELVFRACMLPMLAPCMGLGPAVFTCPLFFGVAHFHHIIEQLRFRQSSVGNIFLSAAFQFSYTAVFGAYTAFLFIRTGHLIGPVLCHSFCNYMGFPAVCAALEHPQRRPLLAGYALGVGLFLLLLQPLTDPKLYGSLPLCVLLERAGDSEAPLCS
Sequence of Cytochrome P450 3A4 (P08684 whole entry): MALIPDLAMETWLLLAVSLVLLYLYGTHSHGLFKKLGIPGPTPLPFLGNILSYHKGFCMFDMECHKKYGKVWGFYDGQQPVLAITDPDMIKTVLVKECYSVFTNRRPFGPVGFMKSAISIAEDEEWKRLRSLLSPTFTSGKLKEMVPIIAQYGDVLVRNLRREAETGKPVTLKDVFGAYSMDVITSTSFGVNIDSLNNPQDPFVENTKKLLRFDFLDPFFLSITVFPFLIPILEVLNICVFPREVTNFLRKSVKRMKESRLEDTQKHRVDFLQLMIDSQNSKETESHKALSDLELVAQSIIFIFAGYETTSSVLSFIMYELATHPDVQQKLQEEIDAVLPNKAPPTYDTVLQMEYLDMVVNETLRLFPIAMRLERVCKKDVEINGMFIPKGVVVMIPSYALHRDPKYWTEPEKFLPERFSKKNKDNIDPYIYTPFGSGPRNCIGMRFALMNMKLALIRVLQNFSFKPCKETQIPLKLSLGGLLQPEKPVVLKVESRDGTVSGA
Sequence of Tyrosine-protein phosphatase non-receptor type 7 (P35236 whole entry): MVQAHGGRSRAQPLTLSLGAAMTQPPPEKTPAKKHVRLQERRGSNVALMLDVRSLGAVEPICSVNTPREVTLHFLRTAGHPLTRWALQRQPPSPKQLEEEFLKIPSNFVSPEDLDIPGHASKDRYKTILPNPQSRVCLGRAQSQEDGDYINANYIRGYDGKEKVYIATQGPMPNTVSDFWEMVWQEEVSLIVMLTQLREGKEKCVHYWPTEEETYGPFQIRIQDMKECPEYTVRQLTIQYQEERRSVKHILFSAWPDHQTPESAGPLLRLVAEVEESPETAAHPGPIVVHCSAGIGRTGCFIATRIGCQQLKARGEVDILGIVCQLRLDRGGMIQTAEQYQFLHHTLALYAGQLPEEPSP
Sequence of CAAX prenyl protease 2 (Saccharomyces cerevisiae S288c, UniProt Q03530) (Q03530 whole entry): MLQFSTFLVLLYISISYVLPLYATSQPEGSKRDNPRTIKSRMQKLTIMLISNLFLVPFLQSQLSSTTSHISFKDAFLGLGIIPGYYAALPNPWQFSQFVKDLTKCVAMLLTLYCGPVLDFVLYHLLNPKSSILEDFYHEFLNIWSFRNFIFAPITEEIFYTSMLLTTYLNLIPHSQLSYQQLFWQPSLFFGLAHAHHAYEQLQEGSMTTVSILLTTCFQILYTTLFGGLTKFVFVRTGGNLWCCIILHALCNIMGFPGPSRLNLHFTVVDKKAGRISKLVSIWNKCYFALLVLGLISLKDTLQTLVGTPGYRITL

SMILES: COc1ccc(-c2csc(N(CCCN(C)C)C(=O)c3ccccc3C)n2)cc1
CC50 [2]: 63.2 µM (active)
IC50 [3]: 76.6 µM (active)

SMILES: COC(=O)C1=C(NC(=O)c2cccc(OC)c2)CCS1
EC50 [10]: > 53 µM (inactive)
AC50 [11]: 25.1 µM (inconclusive)
EC50 [12]: > 85.3 µM (inactive)
EC50 [13]: > 85.3 µM (inactive)
IC50 [14]: > 47.1 µM (inactive)

SMILES: COc1ccc(-c2cc3ccc(OCc4nn[nH]n4)cc3oc2=O)cc1OC
AC50 [15]: 20.3 µM (active)
AC50 [16]: 2.34 µM (active)
AC50 [17]: 1.71 µM (active)

Second part, led by results:

EC50 [1]: 3.76 µM (active)
SMILES: Cc1cccc(Cc2c(C)nc3c(C(=O)NCc4ccco4)cnn3c2C)c1

IC50 [5]: > 100 µM (inactive)
IC50 [6]: 2.51 µM (active)
IC50 [8]: 20.7 µM (active)
IC50 [9]: 1.54 µM (active)
SMILES: O=C(Nc1ccccc1)c1ccc2nc(-c3ccco3)c(-c3ccco3)nc2c1
CC50 [4]: > 40 µM (active)
CC50 [7]: > 40 µM (active)

EC50 [18]: 3.7 µM (active)
SMILES: O=C(COc1ccc(F)cc1)Nc1nnc(-c2ccc(F)c(F)c2)o1

Reference: ChEMBL document CHEMBL1201862, “PubChem BioAssay data set” (2004)
